Values quoted from earlier work, collected in patent publication US9079837B2, “Water-soluble fluorescent fullerene derivative, and preparation method thereof” (KOREA RESEARCH INSTITUTE OF BIOSCIENCE AND BIOTECHNOLOGY, priority 2010, dated 2015).
Values after ≈ are worked out from the molar mass of the structure shown. Counter-ions that a name gives are not always drawn. Like-named read-outs stand apart in the source and are kept apart here.

Legend:
[1] = for fluorescence quantum yield: literature value (J. Am. Chem. Soc. 1993, 1994), room temperature
[2] = water; Sivaraman et al., J. Org. Chem. 1992

fluorescence quantum yield of standard ([1]; standard value) | Compound | solubility [2] [ng/mL] | fluorescence quantum yield ([1]; listed as fullerenes) | fluorescence quantum yield ([1]; listed as general fullerene)
55×10^−2 | C=C[C@H]1C[N@@]2CC[C@H]1C[C@H]2[C@H](O)c1ccnc2ccc(OC)cc12 [quinine sulfate] |  |  | 
 | c12c3c4c5c1c1c6c7c2c2c8c3c3c9c4c4c%10c5c5c1c1c6c6c%11c7c2c2c7c8c3c3c8c9c4c4c9c%10c5c5c1c1c6c6c%11c2c2c7c3c3c8c4c4c9c5c1c1c6c2c3c41 [C60 fullerene, buckminster fullerene (C60)] | 1.3e-05 (≈ 1.8e-05 nM) | about 1×10^−4 | 1×10^−4
